What was measured:
solubility = format: physicochemical
SNM1B = target: T1, SNM1B (Homo sapiens, UniProt Q9H816); assay: real-time fluorescence-based nuclease assay, SNM1B; format: biochemical
T1 construct: for the MBL and β-CASP domains of SNM1B (aa 1–335) into baculoviral expression vectors pFB-CT10HF-LIC; made in house; host or cells: Sf9 insect cells (baculovirus)
T1 sequence (Q9H816 1-335): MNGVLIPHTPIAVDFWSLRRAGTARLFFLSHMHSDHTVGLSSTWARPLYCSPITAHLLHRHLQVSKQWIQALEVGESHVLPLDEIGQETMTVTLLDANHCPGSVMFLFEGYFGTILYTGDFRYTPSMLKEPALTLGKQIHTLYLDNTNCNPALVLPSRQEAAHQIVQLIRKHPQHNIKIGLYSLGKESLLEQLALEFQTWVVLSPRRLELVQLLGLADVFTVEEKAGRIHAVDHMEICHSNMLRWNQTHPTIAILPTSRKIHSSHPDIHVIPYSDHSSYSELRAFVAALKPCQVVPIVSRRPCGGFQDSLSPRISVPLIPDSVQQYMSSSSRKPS
Experimental: (§1) There is structural similarity between SNM1A, SNM1B, and SNM1C and major mechanistic features are likely conserved between the three nucleases. We therefore tested (13) and other hydroxamic acid analogues for inhibition of SNM1B and SNM1C. Due to differences in catalytic turnover between the three enzymes, different concentrations of SNM1B (1 nM) and SNM1C (2.5 nM) were used compared to that for SNM1A (0.5 nM) in the assays. Note that the substrate utilised for the high-throughput fluorescence based and subsequent SNM1A and SNM1B assays differed slightly for SNM1C reflecting its (primarily) endonucleolytic, rather than exonucleolytic, activity (ESI Fig. 9 ^†).
Fluorescence-based nuclease digestion SNM1A–C assays were performed as described.[30,45] […] Fluorescence was measured using a PHERAstar FSX fluorescent plate reader in fluorescent top read mode using excitation at 495 nm, emission at 525 nm, and cutoff at […]. Fluorescence spectra were measured every 140 s, for 35 min, at 37 °C. The fluorescence intensity of each well was plotted against compound concentration and fitted using a log (inhibitor) response curve using GraphPad Prism software (GraphPad Software, Inc., La Jolla, CA, USA).

SNM1A [1] = target: T2, SNM1A (Homo sapiens, UniProt Q6PJP8); assay: real-time fluorescence-based nuclease assay, SNM1A; format: biochemical; design: DNA encoding for the MBL and β-CASP domains of SNM1A (aa 676–1040) was cloned into the baculovirus transfer vector pFB-LIC-Bse; inferred from vector pFB-LIC-Bse and the IMAC purification; made in house; host or cells: Sf9 insect cells (baculovirus); conditions: resynthesised compounds
T2 sequence (Q6PJP8 676-1040): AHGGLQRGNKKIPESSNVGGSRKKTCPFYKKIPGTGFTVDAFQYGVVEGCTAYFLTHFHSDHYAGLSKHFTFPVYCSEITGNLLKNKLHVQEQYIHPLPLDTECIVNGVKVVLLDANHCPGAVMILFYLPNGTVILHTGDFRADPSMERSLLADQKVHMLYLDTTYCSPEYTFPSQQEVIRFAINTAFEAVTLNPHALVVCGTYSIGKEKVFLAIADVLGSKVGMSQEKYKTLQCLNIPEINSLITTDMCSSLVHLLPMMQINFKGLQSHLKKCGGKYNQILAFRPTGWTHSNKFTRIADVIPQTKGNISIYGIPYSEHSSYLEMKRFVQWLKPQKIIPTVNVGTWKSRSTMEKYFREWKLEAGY
Experimental: (§2) In brief, the fluorescence-based nuclease assay utilises a chemically modified 20-nucleotide ssDNA substrate with a fluorescein isothiocyanate (FITC) derived 5′-group and an internal black-hole-quencher-1 (BHQ-1), located eight nucleotides distal to the fluorescein group. In the intact substrate the BHQ-1 suppresses fluorescence, however, exonucleolytic digestion of the substrate from the 5′ end by SNM1A uncouples the BHQ-1 and FITC moieties (see Fig. 1D). Spectra were measured every 140 seconds with an increase in fluorescence indicating enzymatic activity by SNM1A (concentration: 0.1 nM).
(§3) Fluorescence-based nuclease digestion SNM1A–C assays were performed as described.[30,45] In the case of SNM1A and SNM1B, a 20-mer oligonucleotide with a 5′ FITC-conjugated-T and an internal BHQ-1 (black hole quencher) conjugated-T, eight nucleotides distal (3′) to the fluor was utilised; whereas for SNM1C a 20-mer oligonucleotide with a 5′ FITC-conjugated-T and a 3′ BHQ-1(black hole quencher) was used to capture all possible endonucleolytic incisions. Reactions (25 μL) were performed in 384 well microplates in nuclease buffer (20 mM HEPES-KOH pH 7.5, 50 mM KCl, 10 mM MgCl2, 0.5 mM TCEP, 0.05% (v/v) Triton-X, 0.1 mg mL^−1 BSA, 5% (v/v) glycerol) with SNM1A/B/C (0.1 nM SNM1A, 0.5 nM SNM1B and 1 nM SNM1C) as indicated. Proteins were incubated for 10 min at RT with the stated compound where applicable, before the reaction was initiated with the addition of 10 nM DNA substrate. […] Fluorescence spectra were measured every 140 s, for 35 min, at 37 °C. The fluorescence intensity of each well was plotted against compound concentration and fitted using a log (inhibitor) response curve using GraphPad Prism software (GraphPad Software, Inc., La Jolla, CA, USA).

SNM1C [2] = target: T3, SNM1C (Homo sapiens, UniProt Q96SD1); assay: real-time fluorescence-based nuclease assay, SNM1C; format: biochemical; conditions: real-time fluorescence-based nuclease assay
T3 construct: for the MBL and β-CASP domains of SNM1C (aa 1–362) into the baculovirus expression vector pBF-6HZB; made in house; host or cells: Sf9 insect cells (baculovirus)
From the text: as §1, with “Due to differences in catalytic turnover between the three enzymes, different concentrations of SNM1B (1 nM) and SNM1C (2.5 nM) were used compared to that for SNM1A (0.5 nM) in the assays.” left out
as §3

SNM1A [3] = target: T2, SNM1A; design: DNA encoding for the MBL and β-CASP domains of SNM1A (aa 676–1040) was cloned into the baculovirus transfer vector pFB-LIC-Bse; inferred from vector pFB-LIC-Bse and the IMAC purification; made in house; host or cells: Sf9 insect cells (baculovirus); conditions: cited from earlier work
SNM1C [4] = target: T3, SNM1C; conditions: cited from earlier work
SNM1A [5] = target: T2, SNM1A; assay: biochemical
Experimental: as §2

[6] = real-time fluorescence-based nuclease assay, read-out: SNM1A IC50

T3 sequence (Q96SD1 1-362): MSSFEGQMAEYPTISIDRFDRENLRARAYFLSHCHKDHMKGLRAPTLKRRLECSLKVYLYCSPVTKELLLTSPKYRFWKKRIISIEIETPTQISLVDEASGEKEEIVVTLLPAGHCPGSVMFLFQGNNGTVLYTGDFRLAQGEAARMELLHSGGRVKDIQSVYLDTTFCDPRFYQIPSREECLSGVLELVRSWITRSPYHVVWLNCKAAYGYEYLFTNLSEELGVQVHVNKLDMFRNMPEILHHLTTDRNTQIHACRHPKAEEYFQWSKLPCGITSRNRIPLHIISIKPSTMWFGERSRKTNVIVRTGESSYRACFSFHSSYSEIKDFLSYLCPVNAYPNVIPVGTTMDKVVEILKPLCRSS

solubility (solubility)	IC50 (SNM1B) [µM]	IC50 (SNM1A [1]; [6]) [µM]	IC50 (SNM1C [2]) [µM]	IC50 (SNM1A [5]) [µM]	IC50 (SNM1A [1]; SNM1A IC50, real-time fluorescence-based nuclease assay) [µM]	Structure (SMILES)	inhibition of SNM1A (potency in words) (SNM1A [3])	inhibition of SNM1C (potency in words) (SNM1C [4])
poor solubility	1.9	2.4	0.37	–	–	COc1ccc2c3c(cccc13)C(=O)N(O)C2=O [compound 1]	–	–
–	–	–	–	–	–	CO/N=C(\C(=O)N[C@@H]1C(=O)N2C(C(=O)O)=C(CSc3nc(=O)c(=O)[nH]n3C)CS[C@H]12)c1csc(N)n1 [compound 5, ceftriaxone]	low μM potency	low μM potency
–	–	110	–	17.4	129	C=CCNc1nc(N[C@@H](CC(C)C)C(=O)O)c2cc(Cl)ccc2n1 [compound 6]	–	–

Reference: article PMC11134331, “Cell-active small molecule inhibitors validate the SNM1A DNA repair nuclease as a cancer target” (Chemical Science, 2024)
